Measured values: US20220169628A1 (University of Florida Research Foundation, Incorporated, priority 2019, published 2022)

How the values were obtained:
[1] = test system: MOLT-4 cells; test: Cell viability assay, MTS, 48 h, MOLT-4; type: cell-based; details: Homo sapiens, MOLT-4, 48 h, 48 hours, read-out: IC50 (48 hours) MOLT-4
Procedure: (§1) Acute lymphoblastic leukemia cells (MOLT-4 and RS4; 11) or small cell lung cancer (NCI-H146 or simply H146) were incubated with increasing concentrations of Bcl-xL degraders for 48 h. Cell viability was measured by tetrazolium-based MTS assay.

[2] = test system: RS4;11 cells; test: Cell viability assay, MTS, 48 h, RS4;11; type: cell-based; details: Homo sapiens, RS4-11, 48 h, 48 hours, read-out: IC50 (48 hours) RS4;11
Procedure: as §1

| Structure (SMILES) | IC50 [1] [nM] | IC50 [2] [nM] |
| --- | --- | --- |
| Cc1ncsc1-c1ccc([C@H](C)NC(=O)[C@@H]2C[C@@H](O)CN2C(=O)[C@@H](NC(=O)CCCCCCCCCC(=O)N2CCC(c3ccc(Cl)cc3)=C(CN3CCN(c4ccc(C(=O)NS(=O)(=O)c5ccc(N[C@H](CCN6CCOCC6)CSc6ccccc6)c(S(=O)(=O)C(F)(F)F)c5)cc4)CC3)C2)C(C)(C)C)cc1 [compound 84, (2S,4R)-1-((S)-2-(11-(4-(4-chlorophenyl)-5-((4-(4-(((4-(((R)-4-morpholino-1-(phenylthio)butan-2-yl)amino)-3-((trifluoromethyl)sulfonyl)phenyl)sulfonyl)carbamoyl)phenyl)piperazin-1-yl)methyl)-3,6-dihydropyridin-1(2H)-yl)-11-oxoundecanamido)-3,3-dimethylbutanoyl)-4-hydroxy-N—((S)-1-(4-(4-methylthiazol-5-yl)phenyl)ethyl)pyrrolidine-2-carboxamide] | 150 to 500 | 150 to 500 |
| Cc1ncsc1-c1ccc([C@H](C)NC(=O)[C@@H]2C[C@@H](O)CN2C(=O)[C@@H](NC(=O)CCCCCC(=O)N2CCC(c3ccc(Cl)cc3)=C(CN3CCN(c4ccc(C(=O)NS(=O)(=O)c5ccc(N[C@H](CCN6CCOCC6)CSc6ccccc6)c(S(=O)(=O)C(F)(F)F)c5)cc4)CC3)C2)C(C)(C)C)cc1 [compound 80, (2S,4R)-1-((S)-2-(7-(4-(4-chlorophenyl)-5-((4-(4-(((4-(((R)-4-morpholino-1-(phenylthio)butan-2-yl)amino)-3-((trifluoromethyl)sulfonyl)phenyl)sulfonyl)carbamoyl)phenyl)piperazin-1-yl)methyl)-3,6-dihydropyridin-1(2H)-yl)-7-oxoheptanamido)-3,3-dimethylbutanoyl)-4-hydroxy-N—((S)-1-(4-(4-methylthiazol-5-yl)phenyl)ethyl)pyrrolidine-2-carboxamide] | > 500 | > 500 |
| Cc1ncsc1-c1ccc([C@H](C)NC(=O)[C@@H]2C[C@@H](O)CN2C(=O)[C@@H](NC(=O)COCCOCCOCCOCCOC(=O)N2CCC(c3ccc(Cl)cc3)=C(CN3CCN(c4ccc(C(=O)NS(=O)(=O)c5ccc(N[C@H](CCN6CCOCC6)CSc6ccccc6)c(S(=O)(=O)C(F)(F)F)c5)cc4)CC3)C2)C(C)(C)C)cc1 [compound 87, (S)-16-((2S,4R)-4-hydroxy-2-(((S)-1-(4-(4-methylthiazol-5-yl)phenyl)ethyl)carbamoyl)pyrrolidine-1-carbonyl)-17,17-dimethyl-14-oxo-3,6,9,12-tetraoxa-15-azaoctadecyl 4-(4-chlorophenyl)-5-((4-(4-(((4-(((R)-4-morpholino-1-(phenylthio)butan-2-yl)amino)-3-((trifluoromethyl)sulfonyl)phenyl)sulfonyl)carbamoyl)phenyl)piperazin-1-yl)methyl)-3,6-dihydropyridine-1(2H)-carboxylate] | > 500 | > 500 |
| Cc1ncsc1-c1ccc([C@H](C)NC(=O)[C@@H]2C[C@@H](O)CN2C(=O)[C@@H](NC(=O)CCCCCC(=O)N2CCCN(CC3(C)CCC(c4ccc(Cl)cc4)=C(CN4CCN(c5ccc(C(=O)NS(=O)(=O)c6ccc(N[C@H](CCN7CCOCC7)CSc7ccccc7)c(S(=O)(=O)C(F)(F)F)c6)cc5)CC4)C3)CC2)C(C)(C)C)cc1 (stereo partly drawn) [degrader #21, (2S,4R)-1-((2S)-2-(7-(4-((4′-chloro-4-methyl-6-((4-(4-(((4-(((R)-4-morpholino-1-(phenylthio)butan-2-yl)amino)-3-((trifluoromethyl)sulfonyl)phenyl)sulfonyl)carbamoyl)phenyl)piperazin-1-yl)methyl)-2,3,4,5-tetrahydro-[1,1′-biphenyl]-4-yl)methyl)-1,4-diazepan-1-yl)-7-oxoheptanamido)-3,3-dimethylbutanoyl)-4-hydroxy-N—((S)-1-(4-(4-methylthiazol-5-yl)phenyl)ethyl)pyrrolidine-2-carboxamide] | 50 to 150 | < 50 |

More lines, now with the values ahead:

| IC50 [1] [nM] | IC50 [2] [nM] | Structure (SMILES) |
| --- | --- | --- |
| < 50 | < 50 | Cc1ncsc1-c1ccc([C@H](C)NC(=O)[C@@H]2C[C@@H](O)CN2C(=O)[C@@H](NC(=O)CCCCCCC(=O)N2CCN(C(=O)C3(C)CCC(c4ccc(Cl)cc4)=C(CN4CCN(c5ccc(C(=O)NS(=O)(=O)c6ccc(N[C@H](CCN7CCOCC7)CSc7ccccc7)c(S(=O)(=O)C(F)(F)F)c6)cc5)CC4)C3)CC2)C(C)(C)C)cc1 (stereo partly drawn) [compound 65, (2S,4R)-1-((2S)-2-(8-(4-(4′-chloro-4-methyl-6-((4-(4-(((4-(((R)-4-morpholino-1-(phenylthio)butan-2-yl)amino)-3-((trifluoromethyl)sulfonyl)phenyl)sulfonyl)carbamoyl)phenyl)piperazin-1-yl)methyl)-2,3,4,5-tetrahydro-[1,1′-biphenyl]-4-carbonyl)piperazin-1-yl)-8-oxooctanamido)-3,3-dimethylbutanoyl)-4-hydroxy-N—((S)-1-(4-(4-methylthiazol-5-yl)phenyl)ethyl)pyrrolidine-2-carboxamide] |
| < 50 | < 50 | Cc1ncsc1-c1ccc([C@H](C)NC(=O)[C@@H]2C[C@@H](O)CN2C(=O)[C@@H](NC(=O)CC2CCC(CC(=O)N3CCN(CC4(C)CCC(c5ccc(Cl)cc5)=C(CN5CCN(c6ccc(C(=O)NS(=O)(=O)c7ccc(N[C@H](CCN8CCOCC8)CSc8ccccc8)c(S(=O)(=O)C(F)(F)F)c7)cc6)CC5)C4)CC3)CC2)C(C)(C)C)cc1 (stereo partly shown) [degrader #40] |
| 50 to 150 | 50 to 150 | Cc1ncsc1-c1ccc([C@H](C)NC(=O)[C@@H]2C[C@@H](O)CN2C(=O)[C@@H](NC(=O)CCCCCCC(=O)N[C@H]2CCCN(CC3(C)CCC(c4ccc(Cl)cc4)=C(CN4CCN(c5ccc(C(=O)NS(=O)(=O)c6ccc(N[C@H](CCN7CCOCC7)CSc7ccccc7)c(S(=O)(=O)C(F)(F)F)c6)cc5)CC4)C3)C2)C(C)(C)C)cc1 (stereo partly drawn) [degrader #47, N1-((3S)-1-((4′-chloro-4-methyl-6-((4-(4-(((4-(((R)-4-morpholino-1-(phenylthio)butan-2-yl)amino)-3-((trifluoromethyl)sulfonyl)phenyl)sulfonyl)carbamoyl)phenyl)piperazin-1-yl)methyl)-2,3,4,5-tetrahydro-[1,1′-biphenyl]-4-yl)methyl)piperidin-3-yl)-N8-((S)-1-((2S,4R)-4-hydroxy-2-(((S)-1-(4-(4-methylthiazol-5-yl)phenyl)ethyl)carbamoyl)pyrrolidin-1-yl)-3,3-dimethyl-1-oxobutan-2-yl)octanediamide] |
| < 50 | < 50 | Cc1ncsc1-c1ccc([C@H](C)NC(=O)[C@@H]2C[C@@H](O)CN2C(=O)[C@@H](NC(=O)CCCCCCC(=O)N2CCN(C[C@]3(C)CCC(c4ccc(Cl)cc4)=C(CN4CCN(c5ccc(C(=O)NS(=O)(=O)c6ccc(N[C@H](CCN7CCOCC7)CSc7ccccc7)c(S(=O)(=O)C(F)(F)F)c6)cc5)CC4)C3)CC2)C(C)(C)C)cc1 [degrader #44, (2S,4R)-1-((S)-2-(8-(4-(((R)-4′-chloro-4-methyl-6-((4-(4-(((4-(((R)-4-morpholino-1-(phenylthio)butan-2-yl)amino)-3-((trifluoromethyl)sulfonyl)phenyl)sulfonyl)carbamoyl)phenyl)piperazin-1-yl)methyl)-2,3,4,5-tetrahydro-[1,1′-biphenyl]-4-yl)methyl)piperazin-1-yl)-8-oxooctanamido)-3,3-dimethylbutanoyl)-4-hydroxy-N—((S)-1-(4-(4-methylthiazol-5-yl)phenyl)ethyl)pyrrolidine-2-carboxamide] |
